According to US8633167B2, “Method for the protection of trees” (Syngenta Crop Protection LLC, priority 2006, dated 2014):

Key:
[1] = system: Cerambycid larvae; experiment: Bolt study (Example 1): cerambycid larval feeding in loblolly pine bolts cut after trunk injection; assay type: in vivo; conditions: for reduction of cerambycid feeding damage: May
Experimental: (§1) Two 20-year-old, recently thinned loblolly pine plantations were selected on land owned by Temple-Inland Forest Products Corporation about 5 km south of Wells (Angelina County), Tex. Trees in one plantation were injected for use in a bolt study (Example 1). Trees in a 0.2 ha section of the second plantation were injected as part of a single-tree protection study (Example 2). A staging area also was set up in the second plantation where bolts from the first plantation were exposed to bark beetles and wood borers.
Seventy-five loblolly pine trees, Pinus taeda L., 15-20 cm diameter at breast height (DBH), were selected in March 2004. Each treatment was injected into four cardinal points about 0.3 m above the ground on each of 15 trees in April (16th-23rd) using the new Arborjet Tree IV™ microinfusion system (Arborjet, Inc. Woburn, Mass.). The treatments included: • 1) Emamectin benzoate (Denim®, 1.92% ai, Syngenta Crop Science)—Denim® was mixed 1:1 with methanol and applied at 18.6 ml solution per inch of tree diameter at breast height (DBH) (=0.2 g active per inch DBH). • 2) Check (untreated)
After 1 (May 24), 3 (July 19) and 5 (September) months post-injection, 5 trees of each treatment were felled and two 1.5 m long bolts were removed from the 3 m and 8 m heights of the bole. The bolts were transported to a nearby plantation that was recently thinned and contained fresh slash material. Each bolt was placed about 1 m apart on discarded, dry pine bolts to maximize surface area available for colonization as well as to discourage predation by ground and litter-inhabiting organisms. To facilitate timely bark beetle colonization, packets of bark beetle pheromones (racemic ipsdienol + lanerione combination, ipsenol or cis-verbenol; Phero Tech, Inc., Delta, BC, Canada) were attached separately to three 1 m stakes evenly spaced in the study area. Racemic ipsdienol and cis-verbenol were used with the second and third series of bolts deployed in July and September, respectively. The packets were removed after 2 weeks when signs of attacks (boring dust) were observed on most test bolts, signaling that naturally-produced pheromones were present.
Each series of bolts were retrieved about 3 weeks after deployment, after observing many cerambycid egg niches on the bark surface of most bolts. There was concern that if cerambycid larvae were allowed to develop too long, their feeding activity would obscure or obliterate the Ips galleries. Thus, each series of bolts were retrieved and stored temporarily in a TFS seedling cooler (˜45° F.) to slow cerambycid development until the bolts could be evaluated.
In the laboratory, two 10×50 cm strips (total=1000 cm^2) of bark were removed from each bolt. Several measurements were made relating to construction of nuptial chambers and egg galleries and development of brood: • 1) Number of unsuccessful attacks—penetration to phloem, but no egg galleries. • 2) Number of successful attacks—construction of nuptial chamber and at least one egg gallery extending from it. • 3) Number and lengths of egg galleries with brood galleries radiating from them. • 4) Number and lengths of egg galleries without brood galleries. • 5) Cerambycid activity, estimated by overlaying a 100 cm^2 grid over a portion of each bark strip and counting the number of squares overlapping area where cerambycid larvae had fed.
Treatment efficacy was determined by comparing Ips beetle attacks and egg gallery length and cerambycid feeding on treated and untreated bolts. The data were transformed by log10(x+1) to satisfy criteria for normality and homoscedasticity (Zar 1984) and analyzed by GLM and the Fishers Protected LSD test using the Statview statistical program.

[2] = system: Ips engravers beetles; experiment: Single-tree protection study (Example 2): Ips attack, tree mortality and gallery construction on standing loblolly pine; assay type: in vivo; conditions: for Mean # of Egg Galleries Total Number / Mean # of Egg Galleries With Brood No. / Mean # of Egg Galleries Without Brood No. / Mean Length of Egg Galleries Total Length / Mean Length of Egg Galleries With Brood cm / Mean Length of Egg Galleries Without Brood cm: bolts cut after tree mortality or at the end of the trial; for Mean # of Nuptial Chambers With Egg Galleries % of Total / Mean # of Nuptial Chambers Without Egg Galleries % of Total / Mean # of Nuptial Chambers Without Egg Galleries No. / Mean # of Nuptial Chambers with Egg Galleries No. / Mean Total # of Nuptial Chambers: bolts cut after tree mortality or the end of the trial
Experimental: as §1
Loblolly pine, 15-20 cm DBH, were selected in the second plantation in March 2004. Each treatment (the same as those used in Example 1) was injected into four cardinal points about 0.3 m above the ground on each of 6 trees in April (16th-23rd) using the Arborjet Tree IV™ system. After 5 weeks post-injection (May 28), frills were cut with a hatchet into the sapwood between the injection points near the base of the tree. A cellulose sponge was inserted into each cut and loaded with 10 ml of a 4:1 mix of sodium N-methyldithiocarbamate (MS) (Woodfume®; Osmose, Inc., Buffalo, N.Y.) plus dimethyl sulfoxide (DMSO) (Aldrich Chemical) (Roton 1987, Strom et al. 2004). This method reduces resin to near zero in 1-2 weeks. The intent was to stress the tree and make it susceptible to attack by bark beetles without killing it.
Pheromone packets containing racemic ipsdienol + lanerione, ipsenol or cis-verbenol were attached (June 7) atop 3 m stakes evenly spaced in between and around the study trees to encourage attack by the three Ips engraver species. […] Thus, ipsdienol and cis-verbenol pheromone baits were deployed on all stakes on June 17th. The baits were changed every 4 weeks.
A clear panel of acetate (10 cm wide by 25 cm long) coated with Stickem Special® was attached 2 m high on standing trees after deployment of pheromone baits to monitor arrival of bark beetles. The traps were left in place for two weeks.
Three weeks after pheromone deployment (June 28), each tree was evaluated by marking a 30 cm section of bole at a height of 3 m. All visible Ips attacks and cerambycid egg niches were counted within the marked area. The number of trees with fading crowns also was recorded. Thereafter, the trees were evaluated weekly for crown fading. When mortality did occur, the trees were felled and two bolts taken and evaluated for attack success and gallery length as described in Example 1. All remaining trees were felled 66 days (Aug. 9) after initial pheromone deployment when no additional trees had died for 3 weeks. Treatment efficacy was determined by comparing tree survival, beetle attacks and egg gallery length on treated and untreated bolts. As before, data were transformed and analyzed by GLM and the Fisher's Protected LSD test using the Statview statistical program.

[3] = system: coneworm, Dioryctria spp.; conditions: systemic activity in pine; cited from earlier work

4″-deoxy-4″-N-methylamino avermectin B1a/B1b [Emamectin]
Percent Phloem Area Consumed by Larvae ([1]; 1 Month Post Injection (May), bolt height 3 m): 2.2 a %
Percent Phloem Area Consumed by Larvae ([1]; 1 Month Post Injection (May), bolt height 8 m): 0.0 a %
Percent Phloem Area Consumed by Larvae ([1]; 3 Months Post Injection (July), bolt height 3 m): 0.0 a %
Percent Phloem Area Consumed by Larvae ([1]; 3 Months Post Injection (July), bolt height 8 m): 0.0 a %
Percent Phloem Area Consumed by Larvae ([1]; 5 Months Post Injection (September), bolt height 3 m): 0.0 a %
Percent Phloem Area Consumed by Larvae ([1]; 5 Months Post Injection (September), bolt height 8 m): 0.0 a %
cerambycid larval feeding or development ([1]; July and September series, bolts from 3 m): no larval feeding or development
reduction of cerambycid feeding damage ([1]; bolts from 3 m): 93%
reduction of cerambycid feeding damage ([1]; bolts from 8 m): 100%
Percentage of Trees With Fading Crowns ([2]; after 24 days): 0.0 a %
Percentage of Trees With Fading Crowns ([2]; after 32 days): 0.0 a %
Percentage of Trees With Fading Crowns ([2]; after 39 days): 0.0 a %
Percentage of Trees With Fading Crowns ([2]; after 46 days): 0.0 a %
Percentage of Trees With Fading Crowns ([2]; after 52 days): 0.0 a %
Percentage of Trees With Fading Crowns ([2]; after 66 days): 0.0 a %
Mean # of Egg Galleries Total Number ([2]; bolt height 3 m): 0.0 a
Mean # of Egg Galleries With Brood No. ([2]; bolt height 3 m): 0.0 a
Mean # of Egg Galleries Without Brood No. ([2]; bolt height 3 m): 0.0 a
Mean Length of Egg Galleries Total Length ([2]; bolt height 3 m): 0.0 a cm
Mean Length of Egg Galleries With Brood cm ([2]; bolt height 3 m): 0.0 a cm
Mean Length of Egg Galleries Without Brood cm ([2]; bolt height 3 m): 0.0 a cm
Mean # of Egg Galleries Total Number ([2]; bolt height 8 m): 0.0 a
Mean # of Egg Galleries With Brood No. ([2]; bolt height 8 m): 0.0 a
Mean # of Egg Galleries Without Brood No. ([2]; bolt height 8 m): 0.0 a
Mean Length of Egg Galleries Total Length ([2]; bolt height 8 m): 0.0 a cm
Mean Length of Egg Galleries With Brood cm ([2]; bolt height 8 m): 0.0 a cm
Mean Length of Egg Galleries Without Brood cm ([2]; bolt height 8 m): 0.0 a cm
Mean # of Nuptial Chambers With Egg Galleries % of Total ([2]; bolt height 3 m): 0.0%
Mean # of Nuptial Chambers Without Egg Galleries % of Total ([2]; bolt height 3 m): 100.0%
Mean # of Nuptial Chambers Without Egg Galleries No. ([2]; bolt height 3 m): 3.0 ab
Mean # of Nuptial Chambers with Egg Galleries No. ([2]; bolt height 3 m): 0.0 a
Mean Total # of Nuptial Chambers ([2]; bolt height 3 m): 3.0 a
Mean # of Nuptial Chambers With Egg Galleries % of Total ([2]; bolt height 8 m): 0.0%
Mean # of Nuptial Chambers Without Egg Galleries % of Total ([2]; bolt height 8 m): 100.0%
Mean # of Nuptial Chambers Without Egg Galleries No. ([2]; bolt height 8 m): 1.3 ab
Mean # of Nuptial Chambers with Egg Galleries No. ([2]; bolt height 8 m): 0.0 a
Mean Total # of Nuptial Chambers ([2]; bolt height 8 m): 1.3 a
attacks on cut bolts compared to the check ([2]; cut bolts, both heights): significantly fewer
success of attacks that did occur ([2]; cut bolts, both heights): completely unsuccessful
Mean # of Attacks/0.3 Bole Section at 3 m after 24 days, Ips ([2]; standing loblolly pine, after 24 days): 0.5 a
Mean # of Ips caught/Trap ([2]; standing loblolly pine, trap 2 m high): 1.2 a
Ips attacks compared to checks ([2]; standing trees, at 3 m height): significantly fewer
trees with fading crowns (yellowing needles) ([2]; standing trees, first evaluation): None
tree survival ([2]; standing trees, study discontinued after 66 days): all emamectin benzoate-treated trees survived
efficacy against coneworm [3]: highly effective
